Experimental data: patent publication US9453026B2, “ACC inhibitors and uses thereof” (Gilead Apollo, Inc., priority 2011, dated 2016)

Biological target: ACC2 (Homo sapiens, UniProt O00763)
Assay: In vitro ACC2 inhibition assay (ADP-Glo)
Assay type: biochemical
Conditions: read-out: ACC2
Procedure: An exemplary procedure for the in vitro ACC inhibition assay, which can be used to determine the inhibitory action of compounds of the invention toward either ACC1 or ACC2, follows. The ADP-Glo™ Kinase Assay kit from Promega was used. The ADP-Glo™ Kinase Assay is a luminescent ADP detection assay to measure enzymatic activity by quantifying the amount of ADP produced during an enzyme reaction. The assay is performed in two steps; first, after the enzyme reaction, an equal volume of ADP-Glo™ Reagent is added to terminate the reaction and deplete the remaining ATP. Second, the Kinase Detection Reagent is added to simultaneously convert ADP to ATP and allow the newly synthesized ATP to be measured using a luciferase/luciferin reaction. Luminescence can be correlated to ADP concentrations by using an ATP-to-ADP conversion curve. The detailed procedure is as follows. 50 μL of the compound being tested (600 uM in DMSO) was added to a 384-well dilution plate. The compound was diluted 1:3 in succession in DMSO for each row for 11 wells. 0.5 μL ACC2 working solution was added to 384-well white Optiplate assay plate. 0.5 μL diluted compound solution in each column from step 2 to assay plate, each row containing 2 replicates. […] The plates were incubated at room temperature for 15 minutes. 5 μL substrate working solution was added to each well to initiate reaction. […] Plates were incubated at room temperature for 60 minutes. 10 μL ADP glo reagent was added. Plates were incubated at room temperature for 40 minutes. 20 μL kinase detection reagent was added.
Data for each concentration, as well as the positive and negative controls were averaged, and the standard deviation calculated. Percent inhibition was calculated by the formula: 100× (average negative control−compound)/(average negative control−average positive control). The IC50 for each compound was calculated by fitting the data with a non-linear regression equation: Y=Bottom+(Top-Bottom)/(1+10^((Log IC50−X)*HillSlope)), where X is the log of compound concentration and Y is percent inhibition.
The compound numbers correspond to the compound numbers in Table 1.

ACC2, sequence (O00763 whole entry, species assumed): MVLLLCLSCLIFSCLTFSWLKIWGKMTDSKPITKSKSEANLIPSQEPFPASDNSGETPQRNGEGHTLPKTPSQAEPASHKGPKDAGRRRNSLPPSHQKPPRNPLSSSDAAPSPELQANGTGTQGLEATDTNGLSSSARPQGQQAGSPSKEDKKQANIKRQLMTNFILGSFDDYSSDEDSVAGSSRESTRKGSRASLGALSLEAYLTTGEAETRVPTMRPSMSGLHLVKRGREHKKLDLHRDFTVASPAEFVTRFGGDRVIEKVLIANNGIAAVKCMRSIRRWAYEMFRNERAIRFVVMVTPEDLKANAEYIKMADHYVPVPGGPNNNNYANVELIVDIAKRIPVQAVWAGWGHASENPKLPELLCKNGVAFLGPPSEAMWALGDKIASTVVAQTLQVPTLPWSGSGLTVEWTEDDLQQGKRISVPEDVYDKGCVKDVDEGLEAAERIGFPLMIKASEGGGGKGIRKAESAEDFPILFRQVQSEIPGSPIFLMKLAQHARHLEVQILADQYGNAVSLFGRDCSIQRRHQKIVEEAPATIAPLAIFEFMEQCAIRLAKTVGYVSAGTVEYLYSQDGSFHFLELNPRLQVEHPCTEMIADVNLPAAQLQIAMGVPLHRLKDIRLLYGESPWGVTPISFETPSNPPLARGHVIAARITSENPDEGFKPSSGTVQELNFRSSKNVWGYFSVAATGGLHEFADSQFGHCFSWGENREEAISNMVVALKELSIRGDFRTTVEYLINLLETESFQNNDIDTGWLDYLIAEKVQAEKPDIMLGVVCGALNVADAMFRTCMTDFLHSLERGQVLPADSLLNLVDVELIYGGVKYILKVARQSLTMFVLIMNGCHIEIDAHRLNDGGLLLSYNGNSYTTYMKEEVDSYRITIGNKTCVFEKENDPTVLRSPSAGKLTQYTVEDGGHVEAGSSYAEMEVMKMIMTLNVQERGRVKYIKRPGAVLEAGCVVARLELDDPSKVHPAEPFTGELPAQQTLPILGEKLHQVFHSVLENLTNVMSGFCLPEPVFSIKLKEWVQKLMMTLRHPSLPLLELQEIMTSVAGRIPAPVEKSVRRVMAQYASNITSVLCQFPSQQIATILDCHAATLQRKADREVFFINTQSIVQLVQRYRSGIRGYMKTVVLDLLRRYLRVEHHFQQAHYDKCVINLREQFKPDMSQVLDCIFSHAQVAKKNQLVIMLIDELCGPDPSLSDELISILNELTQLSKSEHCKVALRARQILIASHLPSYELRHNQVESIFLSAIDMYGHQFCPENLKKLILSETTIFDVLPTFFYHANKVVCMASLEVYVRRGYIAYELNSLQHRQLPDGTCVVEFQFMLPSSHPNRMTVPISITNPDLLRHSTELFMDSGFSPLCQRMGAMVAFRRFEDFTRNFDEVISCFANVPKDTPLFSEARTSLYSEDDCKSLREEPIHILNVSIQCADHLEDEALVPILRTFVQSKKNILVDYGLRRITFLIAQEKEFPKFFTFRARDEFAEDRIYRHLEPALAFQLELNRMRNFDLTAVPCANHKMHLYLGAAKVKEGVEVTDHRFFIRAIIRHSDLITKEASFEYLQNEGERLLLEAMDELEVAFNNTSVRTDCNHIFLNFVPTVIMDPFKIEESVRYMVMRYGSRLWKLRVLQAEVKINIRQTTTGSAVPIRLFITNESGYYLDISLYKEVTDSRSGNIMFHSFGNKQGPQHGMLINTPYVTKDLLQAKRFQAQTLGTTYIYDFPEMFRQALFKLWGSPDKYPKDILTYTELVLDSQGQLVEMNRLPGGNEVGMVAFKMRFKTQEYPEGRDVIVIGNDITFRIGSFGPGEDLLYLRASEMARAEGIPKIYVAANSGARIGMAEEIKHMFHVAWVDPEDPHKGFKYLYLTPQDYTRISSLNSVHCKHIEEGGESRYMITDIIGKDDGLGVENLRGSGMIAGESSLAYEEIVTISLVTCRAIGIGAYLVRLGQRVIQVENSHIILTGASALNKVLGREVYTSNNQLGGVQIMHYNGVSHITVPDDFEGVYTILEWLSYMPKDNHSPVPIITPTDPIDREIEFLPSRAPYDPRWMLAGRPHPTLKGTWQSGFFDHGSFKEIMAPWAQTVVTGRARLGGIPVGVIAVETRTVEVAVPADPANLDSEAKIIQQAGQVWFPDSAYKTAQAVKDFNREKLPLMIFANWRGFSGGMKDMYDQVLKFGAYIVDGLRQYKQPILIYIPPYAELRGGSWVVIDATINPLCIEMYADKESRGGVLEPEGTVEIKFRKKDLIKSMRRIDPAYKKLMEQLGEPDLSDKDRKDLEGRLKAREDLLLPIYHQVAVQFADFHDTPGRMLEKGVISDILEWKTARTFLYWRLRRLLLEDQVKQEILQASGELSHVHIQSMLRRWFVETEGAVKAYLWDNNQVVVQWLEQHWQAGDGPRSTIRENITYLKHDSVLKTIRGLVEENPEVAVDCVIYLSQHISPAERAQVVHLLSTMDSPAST

| SMILES | IC50 [µM] |
| --- | --- |
| Cc1c(-c2ncco2)sc2c1c(=O)n(C(C)(C)C(=O)O)c(=O)n2C[C@@H](Oc1ccc(F)cc1)c1ccccc1 [I-150, (S)-2-(1-(2-(4-fluorophenoxy)-2-phenylethyl)-5-methyl-6-(oxazol-2-yl)-2,4-dioxo-1,2-dihydrotheno[2,3-d]pyrimidin-3(4H)-yl)-2-methylpropanoic acid] | 5 to 20 |
| Cc1c(-c2ncco2)sc2c1c(=O)n(C(C)(C)C(=O)O)c(=O)n2C[C@H](OCc1ccccc1)c1ccccc1 [I-136, 2-[1-[(2R)-2-(benzyloxy)-2-phenylethyl]-5-methyl-6-(1,3-oxazol-2-yl)-2,4-dioxo-1H,2H,3H,4H-thieno[2,3-d]pyrimidin-3-yl]-2-methylpropanoic acid] | < 5 |
| Cc1c(-c2ncco2)sc2c1c(=O)n(C(C)(C)C(=O)O)c(=O)n2C[C@@H](Oc1ccccc1)c1ccccc1 [I-144, 2-methyl-2-[5-methyl-6-(1,3-oxazol-2-yl)-2,4-dioxo-1-[(2S)-2-phenoxy-2-phenylethyl]-1H,2H,3H,4H-thieno[2,3-d]pyrimidin-3-yl]propanoic acid] | 5 to 20 |
| Cc1c(-c2ncco2)sc2c1c(=O)n(C(C)(C)C(=O)O)c(=O)n2C[C@@H](OC1CCOCC1)c1ccccc1Cl [I-251, 2-[1-[(2S)-2-(2-chlorophenyl)-2-(oxan-4-yloxy)ethyl]-5-methyl-6-(1,3-oxazol-2-yl)-2,4-dioxo-1H,2H,3H,4H-thieno[2,3-d]pyrimidin-3-yl]-2-methylpropanoic acid] | < 5 |
| Cc1c(-c2ncco2)sc2c1c(=O)n(C(C)(C)C(=O)O)c(=O)n2CCOC(C)C [I-234, 2-methyl-2-[5-methyl-6-(1,3-oxazol-2-yl)-2,4-dioxo-1-[2-(propan-2-yloxy)ethyl]-1H,2H,3H,4H-thieno[2,3-d]pyrimidin-3-yl]propanoic acid] | < 5 |
| Cc1c(-c2ncco2)sc2c1c(=O)n(C(C)(C)C(=O)O)c(=O)n2C[C@H](OC[C@H](C)O)c1ccccc1 [I-178, 2-[1-[(2R)-2-[(2S)-2-hydroxypropoxy]-2-phenylethyl]-5-methyl-6-(1,3-oxazol-2-yl)-2,4-dioxo-1H,2H,3H,4H-thieno[2,3-d]pyrimidin-3-yl]-2-methylpropanoic acid] | < 5 |
| O=c1c2ccsc2n(CCc2ccccc2)c(=O)n1CCO [I-59] | > 50 |

Results, then the compound that gave them:

| IC50 [µM] | SMILES |
| --- | --- |
| > 50 | CCOCc1sc2c(c1C)c(=O)n(CCO)c(=O)n2CCc1ccccc1 [I-38, 6-(ethoxymethyl)-3-(2-hydroxyethyl)-5-methyl-1-(2-phenylethyl)-1H,2H,3H,4H-thieno[2,3-d]pyrimidine-2,4-dione] |
| 5 to 20 | CCOC(=O)c1sc2c(c1C)c(=O)n(CC(=O)O)c(=O)n2C[C@@H](O)c1ccccc1 [I-77, 2-[6-(ethoxycarbonyl)-1-[(2S)-2-hydroxy-2-phenylethyl]-5-methyl-2,4-dioxo-1H,2H,3H,4H-thieno[2,3-d]pyrimidin-3-yl]acetic acid] |
| 5 to 20 | CCOC(=O)c1sc2c(c1C)c(=O)n(CC(=O)O)c(=O)n2CC(OC(=O)COC)c1ccccc1 (stereo not shown) [I-101, 2-[6-(ethoxycarbonyl)-1-[2-[(2-methoxyacetyl)oxy]-2-phenylethyl]-5-methyl-2,4-dioxo-1H,2H,3H,4H-thieno[2,3-d]pyrimidin-3-yl]acetic acid] |
| < 1 | CCOC(=O)c1sc2c(c1C)c(=O)n(CC(=O)O)c(=O)n2CC(OC)c1ccccc1 (stereo in doubt) [I-105, 2-[6-(ethoxycarbonyl)-1-[(2S)-2-methoxy-2-phenylethyl]-5-methyl-2,4-dioxo-1H,2H,3H,4H-thieno[2,3-d]pyrimidin-3-yl]acetic acid] |
| < 5 | CCOC(=O)c1sc2c(c1C)c(=O)n(C(C)(C)C(N)=O)c(=O)n2CCc1ccccc1 [I-107, ethyl 3-(1-carbamoyl-1-methylethyl)-5-methyl-2,4-dioxo-1-(2-phenylethyl)-1H,2H,3H,4H-thieno[2,3-d]pyrimidine-6-carboxylate] |
| > 50 | CCOC(=O)c1sc2c(c1C)c(=O)n(CCO)c(=O)n2Cc1cccc2ccccc12 [I-15] |
